Reference: patent US10617680B2 (CELGENE QUANTICEL RESEARCH, INC., priority 2017, dated 2020)
Like-named read-outs stand apart in the source and are kept apart here.

Molecular target: CBP (Homo sapiens (Human), UniProt Q92793)
Experiment: In vitro CBP inhibition (AlphaScreen, biotinylated H4-tetraacetyl peptide)
Type: binding
Experimental: The CBP-inhibitory activity of the compounds described herein was determined by calculating the IC50. More specifically, CBP inhibitor activity was assayed as follows: CBP was cloned and expressed in E. coli as His-tag protein and purified by Nickel affinity and gel-filtration chromatography. […] CBP binding and inhibition is assessed by monitoring the interaction of biotinylated H4-tetraacetyl peptide (AnaSpec, H4K5/8/12/16(Ac), biotin-labeled) with the target using the AlphaScreen technology (Perkin Elmer). In a 384-well ProxiPlate CBP (50 nM final) was combined with peptide (20 nM final) in 50 mM HEPES (pH 7.3), 10 mM NaCl, 0.25 mM TCEP, 0.1% (w/v) BSA, and 0.005% (w/v) Brij-35 either in the presence of DMSO (final 0.4% DMSO) or compound dilution series in DMSO. After 20 min incubation at room temp, Alpha-streptavidin donor beads and Nickel Chelate acceptor beads were added to a final concentration of 5 μg/mL.
The ability of the compounds disclosed herein to inhibit CBP activity was quantified and the respective IC50 value determined.

[1] = AlphaScreen, Table 29, read-out: CBP IC50

Chain of CBP (Q92793 1081-1197): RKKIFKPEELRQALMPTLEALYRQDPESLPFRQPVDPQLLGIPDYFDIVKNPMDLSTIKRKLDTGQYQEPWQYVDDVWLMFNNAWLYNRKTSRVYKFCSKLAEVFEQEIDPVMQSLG

Row | SMILES | IC50 [1] [nM] | IC50 [nM]
1 | Cc1cccc(-c2cc(=O)n(C)cc2-c2cnn(Cc3ccccc3)c2)c1 [Example 111, 5-(1-benzyl-1H-pyrazol-4-yl)-1-methyl-4-(m-tolyl)-pyridin-2(1H)-one] | < 500 | –
2 | CN1CCN(c2ncc(-c3cc(=O)n(C)cc3-c3cnn(-c4cccc(Cl)c4C#N)c3)cn2)CC1 [Example 337, 2-chloro-6-(4-(1-methyl-4-(2-(4-methylpiperazin-1-yl)pyrimidin-5-yl)-6-oxo-1,6-dihydropyridin-3-yl)-1H-pyrazol-1-yl)benzonitrile] | < 500 | –
3 | Cn1cc(-c2cnn(C3CCCCC3O)c2)c(-c2ccccc2)cc1=O (stereo not shown) [Example 321, 5-(1-(2-hydroxycyclohexyl)-1H-pyrazol-4-yl)-1-methyl-4-phenylpyridin-2(1H)-one] | < 500 | –
4 | CCc1ccc(-c2cc(=O)n(C)cc2-c2cnn(-c3cccc(Cl)c3C#N)c2)cn1 [Example 371, 2-chloro-6-(4-(6-ethyl-1′-methyl-6′-oxo-1′,6′-dihydro-[3,4′-bipyridin]-3′-yl)-1H-pyrazol-1-yl)benzonitrile] | < 500 | –
5 | Cc1ccccc1-c1cc(=O)n(C)cc1-c1cnn(Cc2ccccc2)c1 [Example 106, 5-(1-benzyl-1H-pyrazol-4-yl)-1-methyl-4-o-tolyl-1H-pyridin-2-one] | – | 500 to 5000
6 | CCNc1ncc(-c2cc(=O)n(C)cc2-c2cnn(C(C)c3ccccc3)c2)cn1 (stereo not shown) [Example 311] | < 500 | –
7 | Cn1cc(-c2cnn(Cc3ccccc3)c2)c(-c2ccc(C(N)=O)cc2)cc1=O [Example 151, 4-(5-(1-benzyl-1H-pyrazol-4-yl)-1-methyl-2-oxo-1,2-dihydro-pyridin-4-yl)benzamide] | < 500 | –
8 | Cn1cc(-c2cnn(-c3cccc(F)c3C#N)c2)c(-c2ccc(OC3CCCC3)nc2)cc1=O [Example 361] | < 500 | –
9 | Cn1cc(-c2cnn(-c3ccccc3C(=O)O)c2)c(-c2ccc(F)cc2)cc1=O [Example 226, 2-{4-[4-(4-Fluoro-phenyl)-1-methyl-6-oxo-1,6-dihydro-pyridin-3-yl]-pyrazol-1-yl}-benzoic acid] | < 500 | –
10 | Cc1cc(-c2cc(=O)n(C)cc2-c2cnn(-c3ccccc3C#N)c2)c[nH]c1=O [Example 210, 2-[4-(5,1′-Dimethyl-6,6′-dioxo-1,6,1′,6′-tetrahydro-[3,4′]bipyridinyl-3′-yl)-pyrazol-1-yl]-benzonitrile] | < 500 | –
11 | Cn1cc(-c2cnn(-c3cccc(C4CC4)c3C#N)c2)c(-c2ccn(C3CC3)c(=O)c2)cc1=O [Example 388, 2-cyclopropyl-6-(4-(1′-cyclopropyl-1-methyl-2′,6-dioxo-1,1′,2′,6-tetrahydro-[4,4′-bipyridin]-3-yl)-1H-pyrazol-1-yl)benzonitrile] | < 500 | –
12 | CC(C)Oc1cc(=O)n(C)cc1-c1cnn([C@H](C)c2ccccc2)c1 [Example 45, (R)-4-isopropoxy-1-methyl-5-(1-(1-phenylethyl)-1H-pyrazol-4-yl) pyridin-2(1H)-one] | < 500 | –
13 | CCNc1ccc(-c2cc(=O)n(C)cc2-c2cnn(-c3cccc(Cl)c3C#N)c2)cn1 [Example 342, 2-chloro-6-(4-(6-(ethylamino)-1′-methyl-6′-oxo-1′,6′-dihydro-[3,4′-bipyridin]-3′-yl)-1H-pyrazol-1-yl)benzonitrile] | < 500 | –
14 | Cn1cc(-c2cnn(Cc3ccccc3)c2)c(-n2cccn2)cc1=O [Example 66, 5-(1-benzyl-1H-pyrazol-4-yl)-1-methyl-4-(1H-pyrazol-1-yl) pyridin-2(1H)-one] | 500 to 5000 | –
15 | Cn1cc(-c2cnn(Cc3ccccc3)c2)c2cnccc2c1=O [Example 9, 4-(1-benzyl-1H-pyrazol-4-yl)-2-methyl-2,6-naphthyridin-1(2H)-one] | < 500 | –
16 | Cc1cc(-c2cnn(C(C)c3ccccc3)c2)cn(C)c1=O (stereo not shown) [Example 17, 1,3-dimethyl-5-(1-(1-phenylethyl)-1H-pyrazol-4-yl)pyridin-2(1H)-one] | < 500 | –

Row | SMILES | IC50 [1] [nM] | IC50 [nM]
17 | C[C@@H](c1ccccc1)n1cc(-c2cn(C)c(=O)cc2-n2cccn2)cn1 [Example 60, (S)-1-methyl-5-(1-(1-phenylethyl)-1H-pyrazol-4-yl)-4-(1H-pyrazol-1-yl)pyridin-2(1H)-one] | < 500 | –
18 | CC(c1ccccc1)n1cc(-c2cc(Cl)c(=O)n(C)c2)cn1 (stereo not shown) [Example 31, 3-chloro-1-methyl-5-(1-(1-phenylethyl)-1H-pyrazol-4-yl) pyridin-2(1H)-one] | < 500 | –
19 | CCOc1cc(=O)n(C)cc1-c1cn(Cc2ccccc2)nc1NC(C)=O [Example 187, N-[1-Benzyl-4-(4-ethoxy-1-methyl-6-oxo-1,6-dihydro-pyridin-3-yl)-1H-pyrazol-3-yl]-acetamide] | – | 500 to 5000
20 | Cn1cc(-c2cc(=O)n(C)cc2-c2cnn(-c3ccccc3S(C)(=O)=O)c2)ccc1=O [Example 287] | 500 to 5000 | –
21 | CC(C)c1ccc(-c2cc(=O)n(C)cc2-c2cnn(-c3cccc(Cl)c3C#N)c2)cn1 [Example 376, 2-chloro-6-[4-[4-(6-isopropyl-3-pyridyl)-1-methyl-6-oxo-3-pyridyl]pyrazol-1-yl]benzonitrile] | < 500 | –
22 | Cc1nn(C)c(C)c1-c1cn(C)c(=O)cc1-c1ccccc1 [Example 145, 1-methyl-4-phenyl-5-(1,3,5-tri-methyl-1H-pyrazol-4-yl) pyridin-2(1H)-one] | 500 to 5000 | –
23 | Cn1cc(-c2cnn3c2CCC3)c(-c2ccccc2)cc1=O [Example 162, 5-(5,6-dihydro-4H-pyrrolo[1,2-b]pyrazol-3-yl)-1-methyl-4-phenylpyridin-2(1H)-one] | < 500 | –
24 | CCCOc1cc(=O)n(C)cc1-c1cnn(Cc2ccccc2)c1 [Example 165, 5-(1-Benzyl-1H-pyrazol-4-yl)-1-methyl-4-propoxy-1H-pyridin-2-one] | < 500 | –
25 | CCOc1cc(=O)n(C)cc1-c1cnn(C(C)c2ccc(-c3cnn(C)c3)cc2)c1 (stereo not shown) [Example 100, 4-ethoxy-1-methyl-5-(1-{1-[4-(1-methyl-1H-pyrazol-4-yl)-phenyl]-ethyl}-1H-pyrazol-4-yl)-1H-pyridin-2-one] | < 500 | –
26 | CCc1cc(-c2cnn(-c3ccccc3C(=O)O)c2)cn(C)c1=O [Example 257, 2-[4-(5-Ethyl-1-methyl-6-oxo-1,6-dihydro-pyridin-3-yl)-pyrazol-1-yl]-benzoic acid] | 500 to 5000 | –
27 | CCOc1cc(=O)n(C)cc1-c1cnn(-c2ccccc2Cl)c1 [Example 97, 5-(1-(2-chloro-phenyl)-1H-pyrazol-4-yl)-4-ethoxy-1-methyl-pyridin-2(1H)-one] | < 500 | –
28 | Cn1cc(-c2cnn(-c3ccccc3)c2)c(-c2ccccc2)cc1=O [Example 128, 1-methyl-4-phenyl-5-(1-phenyl-1H-pyrazol-4-yl) pyridin-2(1H)-one] | < 500 | –
29 | Cn1cc(-c2cnn(-c3cccc(C4CC4)c3C#N)c2)c(-c2ccc(OCCF)nc2)cc1=O [Example 387, 2-cyclopropyl-6-[4-[4-[6-(2-fluoroethoxy)-3-pyridyl]-1-methyl-6-oxo-3-pyridyl]pyrazol-1-yl]benzonitrile] | < 500 | –
30 | CCn1cc(-c2cnn(Cc3ccccc3)c2)ccc1=O [Example 10, 5-(1-benzyl-1H-pyrazol-4-yl)-1-ethylpyridin-2(1H)-one] | 500 to 5000 | –
31 | Cn1cc(-c2cnn(-c3ccccc3C#N)c2)c(OCCN2CCOCC2)cc1=O [Example 283, 2-(4-(1-methyl-4-(2-morpholinoethoxy)-6-oxo-1,6-dihydropyridin-3-yl)-1H-pyrazol-1-yl)benzonitrile] | < 500 | –
